Test results published in patent US20250042961A1, “P53 PEPTIDOMIMETIC MACROCYCLES” (MERCK SHARP & DOHME LLC, priority 2021, published 2025).
Converted amounts (≈) assume the structure as drawn. Read-outs that look alike come from different tables or passages of the source. *1 amine or outer side, *2 acyl side, *3 side chain or, on linkers, in order; H or OH if unused. Where a SMILES comes first, the peptide text is derived from it. Bridges are numbered along the chain shown (N, C = ends). [ ]: non-standard residue; d: D form. ξ: configuration not given here. ξαMeNle(6-ylidene) = CC(CCCC=[*:3])(N[*:1])C(=O)[*:2]; dPhe(4-CF3) = N[C@H](Cc1ccc(C(F)(F)F)cc1)C(=O)O; dTrp(6-F) = N[C@H](Cc1c[nH]c2cc(F)ccc12)C(=O)O

How the values were obtained:
[1] = tested on: p53 responsive β-lactamase reporter in HCT116 cells; assay: p53 beta-lactamase reporter gene cellular functional assay; format: cell-based
Method: HCT116 cells were stably transfected with a p53 responsive β-lactamase reporter and expanded in McCoy's 5A Medium with 10% fetal bovine serum (FBS), Blasticidin, and Penicillin/Streptomycin and then transferred to 1.5 mL freezing vials and stored under liquid nitrogen in growth media containing 5% DMSO. […] The cells were then seeded into a 384-well plate at a density of 8000 cells per well. […] The final working concentration of DMSO was 0.5%. β-lactamase activity was detected using the ToxBLAzer Dual Screen (Invitrogen), as per the manufacturer's instructions. Measurements were made using the Envision multiplate reader (PerkinElmer). […] Measurements were taken a minimum of three times (biological replicates) and values are reported as geometric means of the replicates.

[2] = tested on: p53 null Ca Ski; format: cell-based; conditions: 72 h
Description: (§1) To further establish the impact of the above modification in making cleaner “drug” like compounds, we profiled a set of compounds of the invention in cellular proliferation assays (Table 3).

[3] = tested on: HCT116; format: cell-based; conditions: for EC50: 72 h; for HCT116 proliferation % Max: 72 hours, 10% serum
Description: as §1

[4] = molecular target: T1, MDM2 (1-125) (Homo sapiens, UniProt Q00987); assay: Competitive fluorescence anisotropy assay (FP Kd MDM2); format: binding
T1 construct: GST (N); His6 (N); TEV cleavage site ENLYFQG (N); made in house; host or cells: Escherichia coli BL21 (DE3) Rosetta T1R
Description: For use in the peptide binding assay, a human MDM2 1-125 sequence was cloned into a pNIC-GST vector. The TEV (tobacco etch virus) cleavage site was changed from ENLYFQS (SEQ ID NO: 13) to ENLYFQG (SEQ ID NO: 14) to give a fusion protein with the following sequence:
[P] is the protein concentration (MDM2), [L] is the labeled peptide concentration, r is the anisotropy measured, r0 is the anisotropy of the free peptide, rb is the anisotropy of the MDM2-FAM-labeled peptide complex, Kd is the dissociation constant, [L]t is the total FAM labeled peptide concentration, and [P]t is the total MDM2 concentration. […] These values were then used to determine apparent Kd values of the respective competing ligands in subsequent competition assays in fluorescence anisotropy experiments. MDM2 and MDM4 competition experiments were performed with their respective concentrations held constant at 250 nM and 75 nM, in the presence of 50 nM of FAM-labeled 12/1. The competing molecules were then titrated against the complex of the FAM-labeled peptide and protein. Apparent Kd values were determined by fitting the experimental data to the equations shown below:
[L]st and [L]t denote labeled ligand and total unlabeled ligand input concentrations, respectively. Kd2 is the dissociation constant of the interaction between the unlabeled ligand and the protein.
In all competition experiments, it is assumed that [P]t>[L]st, otherwise considerable amounts of free labeled ligand would always be present and would interfere with measurements. Kd1 is the apparent Kd for the labeled peptide used and has been experimentally determined as described in the previous paragraph. The FAM-labeled peptide was dissolved in dimethyl sulfoxide (DMSO) at 1 mM and diluted into experimental buffer. Readings were carried out with an Envision Multilabel Reader (PerkinElmer). Experiments were carried out in PBS (2.7 mM KCl, 137 mM NaCl, 10 mM Na2HPO4 and 2 mM KH2PO4 (pH 7.4)) and 0.1% Tween-20 buffer. All titrations were carried out in triplicate. Curve-fitting was carried out using Prism 4.0 (GraphPad®). […] Negative control titrations of the ligands under investigation were also carried out with the fluorescently labeled peptide (in the absence of MDM2) to ensure no interactions were occurring between the ligands and the FAM-labeled peptide. […] Measurements were taken a minimum of three times (biological replicates) and values are reported as geometric means of the replicates.

[5] = tested on: HCT116 cells; format: cell-based; conditions: serum condition not stated; read-out: LDH-release EC50
Method: HCT116 cells were stably transfected with a p53 responsive β-lactamase reporter and expanded in McCoy's 5A Medium with 10% fetal bovine serum (FBS), Blasticidin, and Penicillin/Streptomycin and then transferred to 1.5 mL freezing vials and stored under liquid nitrogen in growth media containing 5% DMSO. One day prior the assay, a vial of banked cells was recovered in a cell culture flask and incubated for 24 hours, followed by removal of cell growth media and replacement with Opti-MEM containing 2% FBS. The cells were then seeded into a 384-well plate at a density of 8000 cells per well. […] The final working concentration of DMSO was 0.5%. Lactate dehydrogenase release was detected using the CytoTox-ONE Homogenous Membrane Integrity Assay Kit (Promega), as per the manufacturer's instructions. Measurements were carried out using the Tecan plate reader. Maximum LDH release was defined as the amount of LDH released as induced by the lytic peptide (iDNA79) and used to normalize the results. Measurements were taken a minimum of three times (biological replicates) and values are reported as geometric means of the replicates.

[6] = tested on: Jump-In T-REx CHO-K1 BLA cells; assay: Tetracycline beta-lactamase reporter gene cellular assay (counterscreen); format: cell-based
Method: This assay was based on Jump-In™ T-REx™ CHO-K1 BLA cells containing a stably integrated β-lactamase under the control of an inducible cytomegalovirus (CMV) promoter. Cells were maintained in Dulbecco's Minimal Eagle Medium (DMEM) with 10% fetal bovine serum (FBS), Blasticidin, and Penicillin/Streptomycin and then transferred to 1.5 mL freezing vials and stored under liquid nitrogen in growth media containing 5% DMSO. […] Cells were seeded into a 384-well plate at a density of 4000 cells per well. […] The final working concentration of DMSO was 0.5%. β-lactamase activity was detected using the ToxBLAzer Dual Screen (Invitrogen), as per the manufacturer's instructions. Measurements were carried out using the Envision multiplate reader (PerkinElmer). Counterscreen activity was defined as the amount of β-lactamase activity induced by tetracycline. Measurements were taken a minimum of three times (biological replicates) and values are reported as geometric means of the replicates.

[7] = Solubility (PBS, pH 7)
[8] = read-out: p53 activity EC50 (0% FBS, 4 h), 0% FBS, 4 h
[9] = read-out: p53 activity EC50 (10% FBS, 16 h), 10% FBS, 16 h
[10] = read-out: Counter screen EC50 (0% FBS, 4 h), 0% FBS, 4 h
[11] = read-out: Counter screen EC50 (10% FBS, 16 h), 10% FBS, 16 h

T1 sequence (Q00987 with tags, fused parts or gaps): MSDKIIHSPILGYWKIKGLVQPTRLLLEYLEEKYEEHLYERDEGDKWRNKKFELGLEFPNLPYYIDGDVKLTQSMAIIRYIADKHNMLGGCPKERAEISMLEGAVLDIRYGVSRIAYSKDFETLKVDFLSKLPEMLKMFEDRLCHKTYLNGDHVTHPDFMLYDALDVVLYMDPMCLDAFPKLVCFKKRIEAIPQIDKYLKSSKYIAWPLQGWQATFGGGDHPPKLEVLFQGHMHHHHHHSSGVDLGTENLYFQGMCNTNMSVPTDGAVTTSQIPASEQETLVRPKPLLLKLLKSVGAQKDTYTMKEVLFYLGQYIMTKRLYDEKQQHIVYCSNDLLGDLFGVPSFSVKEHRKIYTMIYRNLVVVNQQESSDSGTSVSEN

Structure (SMILES)	EC50 [1, 8]	EC50 [1, 9]	EC50 [2]	EC50 [3]	Kd [4]	EC50 [5]	EC50 ([1]; read-out: p53 activity EC50 (10% FBS, 16 h), 10% FBS, 16 h, listed as compound 4)	improvement of p53 reporter gene functional cellular activity ([1]; 0% serum, versus compound 1)	HCT116 proliferation % Max [3]	EC50 [6, 10]	EC50 [6, 11]	EC50 ([6]; serum condition not stated, read-out: counterscreen EC50)	solubility [7]	overall improvement of cellular activity compared to parent peptide ([1]; 10% serum)	p53 null Ca Ski proliferation % Max (inhibition at maximum concentration) [2]	improvement of cell efficacy in HCT116 proliferation versus compound 2 [3]
CC(=O)N[C@@H](C(=O)N[C@H](C)C(=O)N[C@H](Cc1c[nH]c2cc(F)ccc12)C(=O)N[C@H](Cc1ccc(O)cc1)C(=O)N[C@H](C)C(=O)NC1(C)CCC/C=C\CCCC(C)(C(=O)N[C@H](CC(C)C)C(=O)N[C@H](CO)C(N)=O)NC(=O)[C@@H](CCC(N)=O)NC(=O)[C@@H](CCC(=O)O)NC(=O)[C@@H](Cc2ccc(C(F)(F)F)cc2)NC1=O)[C@H](C)O (stereo partly drawn) [Compound 2, Acetyl-^DPMI-δ-(6-10 olefinstaple) (D-K9D-Q, D-R12D-S)-NH2] (Ac-[dT][dA][dTrp(6-F)][dY][dA][ξαMeNle(6-ylidene)][dPhe(4-CF3)][dE][dQ][ξαMeNle(6-ylidene)][dL][dS]-NH2; staple (Z) 6-10)	3.6 µM	> 50 µM	30.4 µM	9.1 µM	0.258 µM	> 50 µM	–	3 fold	80%	> 50 µM	> 50 µM	> 50 µM	–	–	–	–
CC(=O)N[C@@H](C(=O)N[C@H](C)C(=O)N[C@H](Cc1c[nH]c2cc(F)ccc12)C(=O)N[C@H](Cc1ccc(O)cc1)C(=O)N[C@H](C)C(=O)NC1(C)CCC/C=C\CCCC(C)(C(=O)N[C@H](CC(C)C)C(=O)N[C@H](CO)C(=O)N[C@H](C)C(=O)N[C@H](C)C(=O)N[C@H](C)C(N)=O)NC(=O)[C@@H](CCC(N)=O)NC(=O)[C@@H](CCC(=O)O)NC(=O)[C@@H](Cc2ccc(C(F)(F)F)cc2)NC1=O)[C@H](C)O.N (stereo partly drawn) [Compound 3, Acetyl-^DPMI-δ-(6-10 olefinstaple) (D-K9D-Q, D-R12D-S, 3x(D-A)polypeptidetail)-NH2] (Ac-[dT][dA][dTrp(6-F)][dY][dA][ξαMeNle(6-ylidene)][dPhe(4-CF3)][dE][dQ][ξαMeNle(6-ylidene)][dL][dS][dA][dA][dA]-NH2; staple (Z) 6-10)	1.44 µM	4.34 µM	–	–	0.0031 µM	–	–	–	–	> 50 µM	> 50 µM	–	140 µM	–	–	–
CC(=O)N[C@@H](C(=O)N[C@H](C)C(=O)N[C@H](Cc1c[nH]c2cc(F)ccc12)C(=O)N[C@H](Cc1ccc(O)cc1)C(=O)N[C@H](C)C(=O)NC1(C)CCC/C=C\CCCC(C)(C(=O)N[C@H](CC(C)C)C(=O)N[C@H](CO)C(=O)N[C@H](C)C(=O)N[C@H](C)C(=O)N[C@H](C)C(=O)N[C@H](CCC(=O)O)C(=O)N[C@H](C)C(=O)N[C@H](C)C(N)=O)NC(=O)[C@@H](CCC(N)=O)NC(=O)[C@@H](CCC(=O)O)NC(=O)[C@@H](Cc2ccc(C(F)(F)F)cc2)NC1=O)[C@H](C)O (stereo partly drawn) [Compound 7, Acetyl-^DPMI-δ-(6-10 olefinstaple) (D-K9D-Q, D-R12D-S, 3x(D-Ala)-(D-Glu)-2x(D-Ala)polypeptidetail)-NH2] (Ac-[dT][dA][dTrp(6-F)][dY][dA][ξαMeNle(6-ylidene)][dPhe(4-CF3)][dE][dQ][ξαMeNle(6-ylidene)][dL][dS][dA][dA][dA][dE][dA][dA]-NH2; staple (Z) 6-10)	1.41 µM	0.79 µM	–	–	0.00043 µM	–	–	–	–	> 50 µM	> 50 µM	–	–	–	–	–

More lines, main results first:

EC50 [1, 8]	EC50 [1, 9]	EC50 [2]	EC50 [3]	Kd [4]	EC50 [5]	EC50 ([1]; read-out: p53 activity EC50 (10% FBS, 16 h), 10% FBS, 16 h, listed as compound 4)	Structure (SMILES)	improvement of p53 reporter gene functional cellular activity ([1]; 0% serum, versus compound 1)	HCT116 proliferation % Max [3]	EC50 [6, 10]	EC50 [6, 11]	EC50 ([6]; serum condition not stated, read-out: counterscreen EC50)	solubility [7]	overall improvement of cellular activity compared to parent peptide ([1]; 10% serum)	p53 null Ca Ski proliferation % Max (inhibition at maximum concentration) [2]	improvement of cell efficacy in HCT116 proliferation versus compound 2 [3]
0.61 µM	0.28 µM	31.1 µM	1.48 µM	0.0032 µM	–	0.3 µM	CC(=O)N[C@@H](C(=O)N[C@H](C)C(=O)N[C@H](Cc1c[nH]c2cc(F)ccc12)C(=O)N[C@H](Cc1ccc(O)cc1)C(=O)N[C@H](C)C(=O)NC1(C)CCC/C=C\CCCC(C)(C(=O)N[C@H](CC(C)C)C(=O)N[C@H](CO)C(=O)N[C@H](C)C(=O)N[C@H](C)C(=O)N[C@H](C)C(=O)N[C@H](C)C(=O)N[C@H](C)C(=O)N[C@H](C)C(N)=O)NC(=O)[C@@H](CCC(N)=O)NC(=O)[C@@H](CCC(=O)O)NC(=O)[C@@H](Cc2ccc(C(F)(F)F)cc2)NC1=O)[C@H](C)O (stereo partly drawn) [Compound 4, Acetyl-^DPMI-δ-(6-10 olefinstaple) (D-K9D-Q, D-R12D-S, 6x(D-A)polypeptidetail)-NH2] (Ac-[dT][dA][dTrp(6-F)][dY][dA][ξαMeNle(6-ylidene)][dPhe(4-CF3)][dE][dQ][ξαMeNle(6-ylidene)][dL][dS][dA][dA][dA][dA][dA][dA]-NH2; staple (Z) 6-10)	–	84.5%^	> 50 µM	> 50 µM	–	–	100 fold	66%	greater than 6 fold
≥ 50 µM	> 50 µM	–	–	0.0217 µM	–	–	CC(=O)N[C@@H](C(=O)N[C@H](C)C(=O)N[C@H](Cc1c[nH]c2cc(F)ccc12)C(=O)N[C@H](Cc1ccc(O)cc1)C(=O)N[C@H](C)C(=O)NC1(C)CCC/C=C\CCCC(C)(C(=O)N[C@H](CC(C)C)C(=O)N[C@H](CO)C(=O)N[C@H](C)C(=O)N[C@H](C)C(=O)N[C@H](C)C(=O)N[C@H](C)C(=O)N[C@H](C)C(=O)N[C@H](C)C(=O)N[C@H](C)C(=O)N[C@H](C)C(=O)N[C@H](C)C(N)=O)NC(=O)[C@@H](CCC(N)=O)NC(=O)[C@@H](CCC(=O)O)NC(=O)[C@@H](Cc2ccc(C(F)(F)F)cc2)NC1=O)[C@H](C)O (stereo partly drawn) [Compound 5, Acetyl- ^DPMI-δ-(6-10 olefinstaple) (D-K9D-Q, D-R12D-S, 9x(D-A)polypeptidetail)-NH2] (Ac-[dT][dA][dTrp(6-F)][dY][dA][ξαMeNle(6-ylidene)][dPhe(4-CF3)][dE][dQ][ξαMeNle(6-ylidene)][dL][dS][dA][dA][dA][dA][dA][dA][dA][dA][dA]-NH2; staple (Z) 6-10)	–	–	> 50 µM	> 50 µM	–	16 µM (≈ 35.7 µg/mL)	–	–	–
